Measurements as given in BindingDB's records for doi:10.1021/jm00007a013 (Chul Research Center, 1995).

Test: In vitro inhibition of DHT (dihydrotestosterone) on proliferation of androgen-sensitive cancer Schionogi (SC-3) cells

IC50 | SMILES
994 nM | CC(C)CN(C=O)[C@H]1CCC2C3CC[C@H]4N(C)C(=O)CC[C@]4(C)C3CC[C@@]21C (stereo partly drawn) [N-Isobutyl-N-((4aR,6aS,7S,11aR)-1,4a,6a-trimethyl-2-oxo-hexadecahydro-indeno[5,4-f]quinolin-7-yl)-formamide]
90 nM | CCC(CC)N(C=O)[C@H]1CCC2C3CC[C@H]4N(C)C(=O)CC[C@]4(C)C3CC[C@@]21C (stereo partly drawn) [N-(1-Ethyl-propyl)-N-((4aR,6aS,7S,11aR)-1,4a,6a-trimethyl-2-oxo-hexadecahydro-indeno[5,4-f]quinolin-7-yl)-formamide]
162 nM | CC(C)N(C=O)[C@H]1CCC2C3CC[C@H]4N(C)C(=O)CC[C@]4(C)C3CC[C@@]21C (stereo partly drawn) [N-Isopropyl-N-((4aR,6aS,7S,11aR)-1,4a,6a-trimethyl-2-oxo-hexadecahydro-indeno[5,4-f]quinolin-7-yl)-formamide]
1480 nM | CN(C=O)[C@H]1CCC2C3CC[C@H]4N(C)C(=O)CC[C@]4(C)C3CC[C@@]21C (stereo partly drawn) [N-Methyl-N-((4aR,6aS,7S,11aR)-1,4a,6a-trimethyl-2-oxo-hexadecahydro-indeno[5,4-f]quinolin-7-yl)-formamide]
171 nM | CN1C(=O)CC[C@]2(C)C3CC[C@@]4(C)C(CC[C@@H]4N(C=O)CCC(C)(C)C)C3CC[C@@H]12 (stereo partly drawn) [N-(3,3-Dimethyl-butyl)-N-((4aR,6aS,7S,11aR)-1,4a,6a-trimethyl-2-oxo-hexadecahydro-indeno[5,4-f]quinolin-7-yl)-formamide]
96 nM | CCCCCN(C=O)[C@H]1CCC2C3CC[C@H]4N(C)C(=O)CC[C@]4(C)C3CC[C@@]21C (stereo partly drawn) [N-Pentyl-N-((4aR,6aS,7S,11aR)-1,4a,6a-trimethyl-2-oxo-hexadecahydro-indeno[5,4-f]quinolin-7-yl)-formamide]
989 nM | CCCN(C=O)[C@H]1CCC2C3CC[C@H]4N(C)C(=O)CC[C@]4(C)C3CC[C@@]21C (stereo partly drawn) [N-Propyl-N-((4aR,6aS,7S,11aR)-1,4a,6a-trimethyl-2-oxo-hexadecahydro-indeno[5,4-f]quinolin-7-yl)-formamide]
89 nM | CCCCCCN(C=O)[C@H]1CCC2C3CC[C@H]4N(C)C(=O)CC[C@]4(C)C3CC[C@@]21C (stereo partly drawn) [N-Hexyl-N-((4aR,6aS,7S,11aR)-1,4a,6a-trimethyl-2-oxo-hexadecahydro-indeno[5,4-f]quinolin-7-yl)-formamide]
58 nM | CCCCCCCN(C=O)[C@H]1CCC2C3CC[C@H]4N(C)C(=O)CC[C@]4(C)C3CC[C@@]21C (stereo partly drawn) [N-Heptyl-N-((4aR,6aS,7S,11aR)-1,4a,6a-trimethyl-2-oxo-hexadecahydro-indeno[5,4-f]quinolin-7-yl)-formamide]
46 nM | CC(C)CCN(C=O)[C@H]1CCC2C3CC[C@H]4N(C)C(=O)CC[C@]4(C)C3CC[C@@]21C (stereo partly drawn) [N-(3-Methyl-butyl)-N-((4aR,6aS,7S,11aR)-1,4a,6a-trimethyl-2-oxo-hexadecahydro-indeno[5,4-f]quinolin-7-yl)-formamide]
463 nM | CCN(CC)C(=O)[C@H]1CCC2C3CC[C@H]4N(C)C(=O)CC[C@]4(C)C3CC[C@@]21C (stereo partly drawn) [(4aR,6aS,7S,11aR)-1,4a,6a-Trimethyl-2-oxo-hexadecahydro-indeno[5,4-f]quinoline-7-carboxylic acid diethylamide]
166 nM | CCCCN(C=O)[C@H]1CCC2C3CC[C@H]4N(C)C(=O)CC[C@]4(C)C3CC[C@@]21C (stereo partly drawn) [N-Butyl-N-((4aR,6aS,7S,11aR)-1,4a,6a-trimethyl-2-oxo-hexadecahydro-indeno[5,4-f]quinolin-7-yl)-formamide]
50 nM | CCCCCCCCN(C=O)[C@H]1CCC2C3CC[C@H]4N(C)C(=O)CC[C@]4(C)C3CC[C@@]21C (stereo partly drawn) [N-Octyl-N-((4aR,6aS,7S,11aR)-1,4a,6a-trimethyl-2-oxo-hexadecahydro-indeno[5,4-f]quinolin-7-yl)-formamide]
